≈ marks a conversion by molar mass, not a printed value.
What was measured:
[1] = test system: Mycobacterium tuberculosis; assay: Antimycobacterial activity against Mycobacterium tuberculosis after 5 days by MABA; type: functional; details: 120 h
[2] = test system: Mycobacterium tuberculosis; assay: Antimycobacterial activity against Mycobacterium tuberculosis ATCC 27294 by MABA; type: functional
[3] = test system: Mycolicibacterium smegmatis; assay: Antimycobacterial activity against Mycobacterium smegmatis CMCC 93202; type: functional
[4] = test system: Mycolicibacterium smegmatis; assay: Potency index, ratio of ciprofloxacin MIC to compound MIC for Mycobacterium smegmatis CMCC 93202; type: functional
[5] = test system: Mycolicibacterium smegmatis; assay: Potency index, ratio of MIC for 8-OCH3 ciprofloxacin to MIC for test compound for Mycobacterium smegmatis CMCC 93202; type: functional
[6] = test system: Mycolicibacterium smegmatis; assay: Potency index, ratio of MIC for moxifloxacin to MIC for test compound for Mycobacterium smegmatis CMCC 93202; type: functional
[7] = test system: Mycolicibacterium smegmatis; assay: Potency index, ratio of MIC for rifampin to MIC for test compound for Mycobacterium smegmatis CMCC 93202; type: functional
[8] = test system: Mycobacterium tuberculosis; assay: Antimycobacterial activity against Mycobacterium tuberculosis H37Rv […] by BACTEC MGIT method; type: functional
[9] = test system: Mycobacterium tuberculosis; assay: Antimycobacterial activity against Mycobacterium tuberculosis H37Rv after 12 to 28 days by Lowenstein and Jensen method; type: functional
Mycolicibacterium vaccae = assay: Antimycobacterial activity against Mycolicibacterium vaccae 10670; type: functional
[10] = test system: Mycobacterium tuberculosis; assay: Antimycobacterial activity against Mycobacterium tuberculosis H37Rv after 72 hrs by alamar blue dye-based broth dilution assay; type: functional
[11] = test system: Mycobacterium tuberculosis; assay: Antimycobacterial activity against Mycobacterium tuberculosis H37Rv by broth dilution assay; type: functional
[12] = test system: Mycobacterium tuberculosis; assay: Antimycobacterial activity against Mycobacterium tuberculosis H37Rv by MABA; type: functional
[13] = test system: Mycobacterium tuberculosis; assay: Growth inhibition of Mycobacterium tuberculosis H37Rv at 6.25 ug/ml by MABA method relative to control; type: functional; details: read-out: GI
[14] = test system: Mycobacterium tuberculosis; assay: Antimycobacterial activity against Mycobacterium tuberculosis H37Rv ATCC 27294 by BACTEC method; type: functional
[15] = test system: Mycobacterium tuberculosis; assay: Antimycobacterial activity against Mycobacterium tuberculosis H37Rv by BACTEC radiometric assay; type: functional
[16] = Cytotoxicity against African green monkey Vero cells by CellTiter 96 non-radioactive cell proliferation assay; type: cell-based; details: chlorocebus sabaeus, read-out: LD50 (the source's name)
[17] = Selectivity index, ratio of LD50 for African green monkey Vero cells to MIC>99 for Mycobacterium tuberculosis H37Rv; type: toxicity; details: read-out: Selectivity Index

Cc1cc(=O)oc2cc(OCc3cn(Cc4cc(=O)oc5ccc6ccccc6c45)nn3)ccc12
MIC [1]: 6.25 µg/mL (≈ 13.4 µM)

Cc1cc(=O)oc2cc(OCc3cn(Cc4cc(=O)oc5cc(Cl)ccc45)nn3)ccc12
MIC [1]: 6.25 µg/mL (≈ 13.9 µM)

O=C(N/N=C/c1cccc(O)c1)c1cc2ccccc2oc1=O
MIC [2]: 50 to 100 µg/mL (≈ 162 to 324 µM)

Cc1cc(=O)oc2cc(OCc3cn(Cc4cc(=O)oc5ccc(Cl)cc45)nn3)ccc12
MIC [1]: 6.25 µg/mL (≈ 13.9 µM)

COc1ccc2cc(C(=O)CN3CCN(c4c(F)cc5c(=O)c(C(=O)O)cn(C6CC6)c5c4OC)CC3)c(=O)oc2c1
MIC [3]: 0.25 µg/mL (≈ 0.433 µM) | Ratio [4]: 2 - 8 | Ratio [5]: 2 - 8 | Ratio [6]: 2 - 8 | Ratio [7]: 2 - 8

O=C(N/N=C/c1ccc([N+](=O)[O-])cc1)c1cc2ccccc2oc1=O
MIC [2]: 50 to 100 µg/mL (≈ 148 to 296 µM)

N#Cc1ccc(Nc2nc(Oc3cc(=O)oc4ccccc34)nc(N3CCN(c4cccc(C(F)(F)F)c4)CC3)n2)cc1C(F)(F)F
MIC [8]: > 6.25 µg/mL | MIC [9]: 100 to 1000 µg/mL (≈ 153 to 1530 µM)

Cc1ccc2oc(=O)c3c(O)c4cccc(O[C@@H]5O[C@H](C)[C@@H](O)[C@H](O)[C@H]5O[C@@H]5O[C@@H](C)[C@@H](O)[C@@H](O)[C@@H]5O)c4c4oc(=O)c1c2c34
MIC (Mycolicibacterium vaccae): 1.22 µM (≈ 0.764 µg/mL)

COc1cccc(/C=N/NC(=O)c2cc3ccccc3oc2=O)c1
MIC [2]: 50 to 100 µg/mL (≈ 155 to 310 µM)

Cc1cc2oc(=O)c(C(c3cccs3)c3c(O)c4cc(C)c(C)cc4oc3=O)c(C)c2cc1C (stereo unspecified)
MIC [10]: 5.22 µM (≈ 2.47 µg/mL)

O=c1oc2ccccc2cc1-c1cn2nc(C(F)(F)F)sc2n1
MIC [11]: 40 µg/mL (≈ 119 µM)

O=C(N/N=C/c1ccc(O)cc1O)c1cc2ccccc2oc1=O
MIC [2]: 50 to 100 µg/mL (≈ 154 to 308 µM)

N#Cc1ccc(Nc2nc(Oc3cc(=O)oc4ccccc34)nc(N3CCN(c4ccccc4F)CC3)n2)cc1C(F)(F)F
MIC [8]: > 6.25 µg/mL | MIC [9]: 100 to 1000 µg/mL (≈ 166 to 1660 µM)

Cn1c(=O)cc(Oc2nc(Nc3ccc(C#N)c(C(F)(F)F)c3)nc(N3CCN(c4ccc(F)cc4)CC3)n2)c2ccccc21
MIC [8]: > 6.25 µg/mL | MIC [9]: 100 to 1000 µg/mL (≈ 162 to 1620 µM)

COc1ccc(/C=N/NC(=O)c2cc3ccccc3oc2=O)cc1
MIC [2]: 50 to 100 µg/mL (≈ 155 to 310 µM)

O=C(N/N=C/c1cccc(Cl)c1)c1cc2ccccc2oc1=O
MIC [2]: 50 to 100 µg/mL (≈ 153 to 306 µM)

COc1ccc(-c2cc(-c3ccc(O)cc3)nc(/N=c3\ccc4ccccc4o3)n2)cc1
MIC [12]: 9.6 to 240 µg/mL (≈ 22.8 to 569 µM) | inhibition of growth at 6.25 µg/mL [13]: 37%

O=C(N/N=C/c1ccc(O)cc1)c1cc2ccccc2oc1=O
MIC [2]: 50 to 100 µg/mL (≈ 162 to 324 µM)

N#Cc1ccc(Nc2nc(Oc3cc(=O)oc4ccccc34)nc(N3CCN(c4ccc(F)cc4)CC3)n2)cc1C(F)(F)F
MIC [8]: > 6.25 µg/mL | MIC [9]: 100 to 1000 µg/mL (≈ 166 to 1660 µM)

Cn1c(=O)cc(Oc2nc(Nc3ccc(C#N)c(C(F)(F)F)c3)nc(N3CCN(c4cccc(C(F)(F)F)c4)CC3)n2)c2ccccc21
MIC [8]: > 6.25 µg/mL | MIC [9]: 100 to 1000 µg/mL (≈ 150 to 1500 µM)

N#Cc1ccc(Nc2nc(Oc3cc(=O)oc4ccccc34)nc(N3CCN(c4ccc(C(F)(F)F)cc4)CC3)n2)cc1C(F)(F)F
MIC [8]: > 6.25 µg/mL | MIC [9]: 100 to 1000 µg/mL (≈ 153 to 1530 µM)

COc1ccc(-c2cc(-c3ccc([N+](=O)[O-])cc3)nc(/N=c3\ccc4ccccc4o3)n2)cc1
MIC [12]: 9.6 to 240 µg/mL (≈ 21.3 to 533 µM) | inhibition of growth at 6.25 µg/mL [13]: 65%

Cn1c(=O)cc(Oc2nc(Nc3ccc(C#N)c(C(F)(F)F)c3)nc(N3CCN(c4ccc(C(F)(F)F)cc4)CC3)n2)c2ccccc21
MIC [8]: > 6.25 µg/mL | MIC [9]: 100 to 1000 µg/mL (≈ 150 to 1500 µM)

Cn1c(=O)cc(Oc2nc(Nc3ccc(C#N)c(C(F)(F)F)c3)nc(N3CCN(c4ccccc4F)CC3)n2)c2ccccc21
MIC [8]: > 6.25 µg/mL | MIC [9]: 100 to 1000 µg/mL (≈ 162 to 1620 µM)

O=c1oc2ccccc2cc1C(c1cccs1)c1c(O)c2ccccc2oc1=O (stereo unspecified)
MIC [10]: 5.22 µM (≈ 2.1 µg/mL)

Oc1ccc(-c2cc(-c3ccc(Cl)cc3)nc(/N=c3\ccc4ccccc4o3)n2)cc1
MIC [12]: 9.6 to 240 µg/mL (≈ 22.5 to 564 µM) | inhibition of growth at 6.25 µg/mL [13]: 70%

CCCc1cc(=O)oc2c3c(c4c(c12)OC(C)(C)C=C4)O[C@H](C)[C@@H](C)[C@@H]3O [CALANOLIDE A]
MIC [14]: 3.13 µg/mL (≈ 8.45 µM)

NC(=O)c1cnccn1 [PYRAZINAMIDE]
MIC [2]: > 100 µg/mL

C[C@H]1[C@H](C)Oc2c3c(c4c(-c5ccccc5)cc(=O)oc4c2[C@H]1O)OC(C)(C)C=C3 [SOULATTROLIDE]
MIC99 [15]: 3.13 µg/mL (≈ 7.74 µM) | CC50 [16]: > 10 µg/mL | selectivity ratio [17]: > 3.2

Source: ChEMBL document CHEMBL4138081, “Recent developments of coumarin-containing derivatives and their anti-tubercular activity” (Eur J Med Chem, 2017)
